≈ marks a conversion by molar mass, not a printed value. Where two headings read alike, the source gives them in different places.
How the values were obtained:
Assay in all cases: minimum inhibition concentration (MIC)
Assay type in all cases: cell-based
Sh. dysenteriae JS 11910 = conditions: Shigella dysenteriae, JS11910
From the text: (§1) Regarding the antimicrobial activity of the tylosin derivatives of this invention shown by formula I, the minimum inhibition concentration (MIC) is shown in Table I.

Kleb. pneumoniae PCI 602 = conditions: Klebsiella pneumoniae, PCI602
From the text: as §1

Sal. enteritidis 1891 = conditions: Salmonella enterica
From the text: as §1

Staph. aureus MS 10225 = conditions: Staphylococcus aureus, MS10225
From the text: as §1

E. coli NIHJ = conditions: Escherichia coli
From the text: as §1

Staph. aureus 209 P = conditions: Staphylococcus aureus
From the text: as §1

B. subtilis NRRL B-558 = conditions: Bacillus subtilis, NRRLB558
From the text: as §1

Ataph. aureus MS 9861 = tested on: Ataph. aureus MS 9861
From the text: as §1

[1] = Kleb. pneumoniae PCI 602, read-out: MIC
[2] = Sal. enteritidis 1891, read-out: MIC
[3] = B. subtilis NRRL B-558, read-out: MIC
[4] = Staph. aureus 209 P, read-out: MIC

| Structure (SMILES) | MIC (Sh. dysenteriae JS 11910) | MIC (Kleb. pneumoniae PCI 602; [1]) | MIC (Sal. enteritidis 1891; [2]) | MIC (Staph. aureus MS 10225) | MIC (E. coli NIHJ) | MIC (Staph. aureus 209 P; 209P) | MIC (B. subtilis NRRL B-558; [3]) | MIC (Ataph. aureus MS 9861) | MIC (Sal. enteritidis 1891; ENTERITIDIS) | MIC (B. subtilis NRRL B-558) | MIC (Kleb. pneumoniae PCI 602) | MIC (E. coli NIHJ; E. coli NIHJ, read-out: MIC) | MIC (Staph. aureus 209 P; [4]) |
| --- | --- | --- | --- | --- | --- | --- | --- | --- | --- | --- | --- | --- | --- |
| CCC1OC(=O)CC(O)C(C)C(OC2OC(C)CC(N(C)C)C2O)C(CC=O)CC(C)C(=O)C=CC(C)=CC1CO (centres unmarked) [Example 2, 4'-deoxy mycaminosyl tylonolide] | < 0.2 µg/mL | 0.78 µg/mL (≈ 1.34 µM) | 0.78 µg/mL (≈ 1.34 µM) | 3.12 µg/mL (≈ 5.36 µM) | 3.12 µg/mL (≈ 5.36 µM) | 0.2 µg/mL (≈ 0.344 µM) | 0.78 µg/mL (≈ 1.34 µM) | 3.12 µg/mL (≈ 5.36 µM) |  |  |  |  |  |
| CCC1OC(=O)CC(O)C(C)C(OC2OC(C)CC(N(C)C)C2O)C(CC=O)CC(C)C(=O)C=CC(C)=CC1COC(C)=O (centres unmarked) [Example 9, 23-O-acetyl-4'-deoxy mycaminosyl tylonolide] | 0.78 µg/mL (≈ 1.25 µM) | 6.25 µg/mL (≈ 10 µM) |  | 0.78 µg/mL (≈ 1.25 µM) | 6.25 µg/mL (≈ 10 µM) | 0.2 µg/mL (≈ 0.321 µM) |  | 1.56 µg/mL (≈ 2.5 µM) | 1.56 µg/mL (≈ 2.5 µM) | 0.39 µg/mL (≈ 0.625 µM) |  |  |  |
| CCC(=O)OCC1C=C(C)C=CC(=O)C(C)CC(CC=O)C(OC2OC(C)CC(N(C)C)C2O)C(C)C(O)CC(=O)OC1CC (centres unmarked) [Example 10, 23-O-propionyl-4'-deoxy mycaminosyl tylonolide] | 0.2 µg/mL (≈ 0.314 µM) |  | 0.78 µg/mL (≈ 1.22 µM) | 0.2 µg/mL (≈ 0.314 µM) |  |  |  | 3.12 µg/mL (≈ 4.89 µM) |  | < 0.2 µg/mL | 1.56 µg/mL (≈ 2.45 µM) | 6.25 µg/mL (≈ 9.8 µM) | 0.2 µg/mL (≈ 0.314 µM) |
| CCC1OC(=O)CC(O)C(C)C(OC2OC(C)CC(N(C)C)C2O)C(CC=O)CC(C)C(=O)C=CC(C)=CC1COC1CCCS1 (centres unmarked) [Example 18, 23-O-tetrahydrothiofuranyl-4'-deoxy mycaminosyl tylonolide] | 0.39 µg/mL (≈ 0.584 µM) | 1.56 µg/mL (≈ 2.34 µM) | 1.56 µg/mL (≈ 2.34 µM) | 0.2 µg/mL (≈ 0.299 µM) |  |  |  | 0.2 µg/mL (≈ 0.299 µM) |  | < 0.2 µg/mL |  | 6.25 µg/mL (≈ 9.36 µM) | < 0.2 µg/mL |
| CCC1OC(=O)CC(O)C(C)C(OC2OC(C)CC(N(C)C)C2O)C(CC=O)CC(C)C(=O)C=CC(C)=CC1COC1CCCCS1 (centres unmarked) [Example 19, 23-O-tetrahydrothiopyranyl-4'-deoxy mycaminosyl tylonolide] | 0.39 µg/mL (≈ 0.572 µM) |  | 1.56 µg/mL (≈ 2.29 µM) | < 0.2 µg/mL |  |  |  | < 0.2 µg/mL |  | < 0.2 µg/mL | 3.12 µg/mL (≈ 4.58 µM) | 25 µg/mL (≈ 36.7 µM) | < 0.2 µg/mL |
| CCC1OC(=O)CC(O)C(C)C(OC2OC(C)CC(N(C)C)C2O)C(CC=O)CC(C)C(=O)C=CC(C)=CC1COCSC (centres unmarked) [Example 20, 23-O-methylthiomethyl-4'-deoxy mycaminosyl tylonolide] | 0.78 µg/mL (≈ 1.22 µM) | 1.56 µg/mL (≈ 2.43 µM) | 0.78 µg/mL (≈ 1.22 µM) | 0.78 µg/mL (≈ 1.22 µM) |  |  | < 0.2 µg/mL | 3.12 µg/mL (≈ 4.86 µM) |  |  |  | 6.25 µg/mL (≈ 9.74 µM) | < 0.2 µg/mL |
| CCC1OC(=O)CC(O)C(C)C(OC2OC(C)CC(N(C)C)C2O)C(CC=O)CC(C)C(=O)C=CC(C)=CC1CCl (centres unmarked) [Example 21, 23-chloro-23,4'-dideoxy mycaminosyl tylonolide] | 0.39 µg/mL (≈ 0.65 µM) | 1.56 µg/mL (≈ 2.6 µM) | 0.39 µg/mL (≈ 0.65 µM) | 6.25 µg/mL (≈ 10.4 µM) |  |  | 0.2 µg/mL (≈ 0.333 µM) | 6.25 µg/mL (≈ 10.4 µM) |  |  |  | 6.25 µg/mL (≈ 10.4 µM) | 0.78 µg/mL (≈ 1.3 µM) |
| CCC1OC(=O)CC(O)C(C)C(OC2OC(C)CC(N(C)C)C2O)C(CC=O)CC(C)C(=O)C=CC(C)=CC1CSc1ccccn1 (centres unmarked) [Example 27, 23,4'-dideoxy-23-(pyridine-2-ylthio) mycaminosyl tylonolide] | 0.2 µg/mL (≈ 0.296 µM) | 1.56 µg/mL (≈ 2.31 µM) | 0.78 µg/mL (≈ 1.16 µM) | 0.39 µg/mL (≈ 0.578 µM) | 12.5 µg/mL (≈ 18.5 µM) |  | < 0.2 µg/mL | 0.78 µg/mL (≈ 1.16 µM) |  |  |  |  | < 0.2 µg/mL |
| CC[C@H]1OC(=O)C[C@@H](O)[C@H](C)[C@@H](O[C@@H]2O[C@H](C)[C@@H](O[C@H]3C[C@@](C)(O)[C@@H](O)[C@H](C)O3)[C@H](N(C)C)[C@H]2O)[C@@H](CC=O)C[C@@H](C)C(=O)/C=C/C(C)=C/[C@@H]1CO[C@@H]1O[C@H](C)[C@@H](O)[C@@H](OC)[C@H]1OC [Tylosin] | 12.5 µg/mL (≈ 13.6 µM) | 25 µg/mL (≈ 27.3 µM) | 25 µg/mL (≈ 27.3 µM) | 3.12 µg/mL (≈ 3.41 µM) | 100 µg/mL (≈ 109 µM) | 0.39 µg/mL (≈ 0.426 µM) |  | 6.25 µg/mL (≈ 6.82 µM) |  |  |  |  |  |
